Reference: patent US3948911A, “Substituted quinoxaline-2-carboxamide 1,4-dioxides” (Pfizer Inc., priority 1974, dated 1976)
Values after ≈ are worked out from the molar mass of the structure shown.

system: Strep. pyogenes; test: in vivo activity in mice infected with a lethal inoculum, survivors; details: Streptococcus pyogenes, sc; subcutaneous, 50 mg./kg., survivors/treated mice; read-out: IN VIVO Survivors-SC Strep. pyogenes (converted)
Description: (§1) In determining in vivo activity of the quinoxaline-1,4-dioxides of this invention, the test compound is administered to mice which have been infected by […] injection of a lethal inoculum of pathogenic bacteria. The test compound is administered using a multiple dosing regimen and using either the oral (PO) or the subcutaneous (SC) route. The inoculum of bacteria varies from about 1 to about 10 times the amount needed to kill 100% of the mice under the conditions of the test. At the end of the test, the activity of the compound is assessed by counting the number of survivors among the treated animals.
(§2) In vitro and in vivo activity of representative compounds of this invention, determined as aforesaid, are reported in the following tabulation for compounds of the formula: ##SPC3##

Compound | responders at 50 mg/kg
CNC(=O)c1c(C)[n+]([O-])c2ccc(CO)cc2[n+]1[O-] [NHCH3 7-CH2 OH CH3] | 20%
CNC(=O)c1c(C)[n+]([O-])c2ccc(C(C)=O)cc2[n+]1[O-] [NHCH3 7-COCH3 CH3] | 50%

same assay, conditions: Streptococcus pyogenes, sc; subcutaneous, footnote (c): dosage = 100 mg./kg.; read-out: IN VIVO Survivors-SC Strep. pyogenes

Compound | responders at 100 mg/kg
CC(=O)c1ccc2c(c1)[n+]([O-])c(C)c(C(=O)N(C)C)[n+]2[O-] [N(CH3)2 6-COCH3 CH3] | 60%

same assay, conditions: Streptococcus pyogenes; oral, 50 mg./kg., survivors/treated mice; read-out: IN VIVO Survivors (PO) Strep. pyogenes (converted)

Compound | responders at 50 mg/kg
CNC(=O)c1c(C)[n+]([O-])c2ccc(CO)cc2[n+]1[O-] [NHCH3 7-CH2 OH CH3] | 10%
CNC(=O)c1c(C)[n+]([O-])c2ccc(C(C)=O)cc2[n+]1[O-] [NHCH3 7-COCH3 CH3] | 90%

same assay, conditions: Streptococcus pyogenes; oral, footnote (c): dosage = 100 mg./kg.; read-out: IN VIVO Survivors (PO) Strep. pyogenes

Compound | responders at 100 mg/kg
CC(=O)c1ccc2c(c1)[n+]([O-])c(C)c(C(=O)N(C)C)[n+]2[O-] [N(CH3)2 6-COCH3 CH3] | 50%

same assay, conditions: oral, 50 mg./kg., survivors/treated mice

Compound | IN VIVO Survivors (PO) Strep. pyogenes
6-(7)-Formyl-N-(2-Hydroxyethyl)-3-Methyl-2-Quinoxalinecarboxamide 1,4-Dioxide Ethylene Acetal [NHCH2 CH2 OH 6(7)-OO.angle.C.angle.H CH3] | 3/10
Ethyl 6(7)-Hydroxymethyl-3-Methyl-2-Quinoxaline-Carboxylate 1,4-Dioxide [OCH2 CH3 6(7)-CH2 OH CH3] | 5/10
N,3-Dimethyl-6(7)-Hydroxymethyl-2-Quinoxalinecarboxamide 1,4-Dioxide [NHCH3 6(7)-CH2 OH CH3] | 3/10
N-Methyl-6(7)-Hydroxymethyl-2-Quinoxalinecarboxamide 1,4-Dioxide [NHCH3 6(7)-CH2 OH H] | 6/10

same assay, conditions: subcutaneous, 50 mg./kg., survivors/treated mice

Compound | IN VIVO Survivors-SC Strep. pyogenes
6-(7)-Formyl-N-(2-Hydroxyethyl)-3-Methyl-2-Quinoxalinecarboxamide 1,4-Dioxide Ethylene Acetal [NHCH2 CH2 OH 6(7)-OO.angle.C.angle.H CH3] | 2/10
Ethyl 6(7)-Hydroxymethyl-3-Methyl-2-Quinoxaline-Carboxylate 1,4-Dioxide [OCH2 CH3 6(7)-CH2 OH CH3] | 6/10
N,3-Dimethyl-6(7)-Hydroxymethyl-2-Quinoxalinecarboxamide 1,4-Dioxide [NHCH3 6(7)-CH2 OH CH3] | 3/10
N-Methyl-6(7)-Hydroxymethyl-2-Quinoxalinecarboxamide 1,4-Dioxide [NHCH3 6(7)-CH2 OH H] | 10/10

system: E. coli; test: as above; details: Escherichia coli, sc; subcutaneous, 25 mg./kg., survivors/treated mice
Description: as §1, §2

Compound | responders at 25 mg/kg
CC(=O)c1ccc2c(c1)[n+]([O-])c(C)c(C(=O)N(C)C)[n+]2[O-] [N(CH3)2 6-COCH3 CH3] | 20%
CNC(=O)c1c(C)[n+]([O-])c2ccc(CO)cc2[n+]1[O-] [NHCH3 7-CH2 OH CH3] | 90%
CNC(=O)c1c(C)[n+]([O-])c2ccc(C(C)=O)cc2[n+]1[O-] [NHCH3 7-COCH3 CH3] | 60%

same assay, conditions: oral, 25 mg./kg., survivors/treated mice

Compound | IN VIVO Survivors (PO) E. coli
CC(=O)c1ccc2c(c1)[n+]([O-])c(C)c(C(=O)N(C)C)[n+]2[O-] [N(CH3)2 6-COCH3 CH3] | 0/5

same assay, conditions: subcutaneous, 25 mg./kg., survivors/treated mice

Compound | IN VIVO Survivors-SC E. coli
6-(7)-Formyl-N-(2-Hydroxyethyl)-3-Methyl-2-Quinoxalinecarboxamide 1,4-Dioxide Ethylene Acetal [NHCH2 CH2 OH 6(7)-OO.angle.C.angle.H CH3] | 3/10
Ethyl 6(7)-Hydroxymethyl-3-Methyl-2-Quinoxaline-Carboxylate 1,4-Dioxide [OCH2 CH3 6(7)-CH2 OH CH3] | 4/10
N,3-Dimethyl-6(7)-Hydroxymethyl-2-Quinoxalinecarboxamide 1,4-Dioxide [NHCH3 6(7)-CH2 OH CH3] | 8/10
N-Methyl-6(7)-Hydroxymethyl-2-Quinoxalinecarboxamide 1,4-Dioxide [NHCH3 6(7)-CH2 OH H] | 4/10

system: Strep. pyogenes; test: in vitro antibacterial activity, two-fold serial dilution in Brain-Heart Infusion Broth, MIC; type: cell-based; details: Streptococcus pyogenes, overnight, anaerobic
Description: (§3) The broth is inoculated with bacteria and with the test quinoxaline-1,4-dioxide and then it is incubated overnight under anerobic conditions. On the next day, the test is read visually. The minimum inhibitory concentration (MIC) of the test compound is the lowest concentration which prevents turbidity, i.e., which prevents growth of the microorganism.
as §2

Compound | MIC
CC(=O)c1ccc2c(c1)[n+]([O-])c(C)c(C(=O)N(C)C)[n+]2[O-] [N(CH3)2 6-COCH3 CH3] | 6.25 µg/mL (≈ 21.6 µM)
CNC(=O)c1c(C)[n+]([O-])c2ccc(CO)cc2[n+]1[O-] [NHCH3 7-CH2 OH CH3] | > 200 µg/mL
CNC(=O)c1c(C)[n+]([O-])c2ccc(C(C)=O)cc2[n+]1[O-] [NHCH3 7-COCH3 CH3] | 0.391 µg/mL (≈ 1.42 µM)

same assay, conditions: overnight, anaerobic

Compound | IN VITRO MIC Strep. pyogenes
6-(7)-Formyl-N-(2-Hydroxyethyl)-3-Methyl-2-Quinoxalinecarboxamide 1,4-Dioxide Ethylene Acetal [NHCH2 CH2 OH 6(7)-OO.angle.C.angle.H CH3] | 0.781 µg/mL
Ethyl 6(7)-Hydroxymethyl-3-Methyl-2-Quinoxaline-Carboxylate 1,4-Dioxide [OCH2 CH3 6(7)-CH2 OH CH3] | 25 µg/mL
N,3-Dimethyl-6(7)-Hydroxymethyl-2-Quinoxalinecarboxamide 1,4-Dioxide [NHCH3 6(7)-CH2 OH CH3] | 50 µg/mL
N-Methyl-6(7)-Hydroxymethyl-2-Quinoxalinecarboxamide 1,4-Dioxide [NHCH3 6(7)-CH2 OH H] | 0.781 µg/mL

system: E. coli; test: as above; type: cell-based; details: Brain-Heart Infusion Broth, overnight, anaerobic
Description: as §3, §2

Compound | IN VITRO MIC E. coli
6-(7)-Formyl-N-(2-Hydroxyethyl)-3-Methyl-2-Quinoxalinecarboxamide 1,4-Dioxide Ethylene Acetal [NHCH2 CH2 OH 6(7)-OO.angle.C.angle.H CH3] | 25 µg/mL
Ethyl 6(7)-Hydroxymethyl-3-Methyl-2-Quinoxaline-Carboxylate 1,4-Dioxide [OCH2 CH3 6(7)-CH2 OH CH3] | 25 µg/mL
N,3-Dimethyl-6(7)-Hydroxymethyl-2-Quinoxalinecarboxamide 1,4-Dioxide [NHCH3 6(7)-CH2 OH CH3] | 25 µg/mL
N-Methyl-6(7)-Hydroxymethyl-2-Quinoxalinecarboxamide 1,4-Dioxide [NHCH3 6(7)-CH2 OH H] | 1.562 µg/mL

same assay, conditions: Escherichia coli, read-out: IN VITRO MIC E. coli

Compound | MIC
CC(=O)c1ccc2c(c1)[n+]([O-])c(C)c(C(=O)N(C)C)[n+]2[O-] [N(CH3)2 6-COCH3 CH3] | 6.25 µg/mL (≈ 21.6 µM)

same assay, conditions: Escherichia coli; Brain-Heart Infusion Broth, overnight, anaerobic; read-out: IN VITRO MIC E. coli

Compound | MIC
CNC(=O)c1c(C)[n+]([O-])c2ccc(CO)cc2[n+]1[O-] [NHCH3 7-CH2 OH CH3] | 6.25 µg/mL (≈ 23.7 µM)
CNC(=O)c1c(C)[n+]([O-])c2ccc(C(C)=O)cc2[n+]1[O-] [NHCH3 7-COCH3 CH3] | 0.391 µg/mL (≈ 1.42 µM)
